Measured values reported in patent publication US8187831B2, “Determination of ions using ion-sensitive enzymes” (General Atomics, priority 2003, dated 2012).
Like-named read-outs stand apart in the source and are kept apart here.

Assays:
[1] = molecular target: T1, chimeric 3′(2′),5′-bisphosphate nucleotidase (Saccharomyces cerevisiae, UniProt P32179); assay type: biochemical, Saccharomyces cerevisaie
T1 construct: His6 (C)
Excerpt: (§1) Assay Principle. […] Through enzymatic coupling, the phosphatase substrate, adenosine 3′,5′-bisphosphate (PAP) was converted to hypoxanthine by a series of enzymatic reactions to generate uric acid and hydrogen peroxide (H2O2). H2O2 generated reacts with N-Ethyl-N-(2-hydroxy-3-sulfopropyl)-3-m-toluidine (EHSPT) and 4-aminoantipyrine (4-AA) in the presence of peroxidase (POD) to form a quinone dye which had maximal absorbance at 556 nm. The rate of the quinine dye formation was inversely proportion to the concentration of sodium in serum samples. The enzymatic coupling reaction scheme is shown below in Table 3:
Key Assay Characteristics. The sodium enzymatic assay was a two reagent (R1 and R2) based kinetic assay system. The results were obtained in 10 min by measuring absorbance at 550 nm. No off line pretreatment was needed.
Assay Procedure. • 1. Reconstituted R1 and R2 reagents as described in Reagent Preparation section and kept the reconstituted R1 and R2 reagents on ice bath. • 2. In a cuvette, mixed 180 μL of Reagent R1 and 20 μL of serum sample and incubated at 37° C. for 1 minute and then added 85 μL of Reagent 2. • 3. Read absorbance (550 nm) at 3 min (2 min after addition of Reagent 2) as A1. Incubated for a further 7 min and read the absorbance at 10 min as A2. • 4. Calculated ΔA=A2−A1
Calibration. This assay was calibrated daily using the enclosed low and high sodium standards. A calibration curve was constructed by plotting the ΔA values of the standards against the corresponding sodium concentrations. The sodium concentration of the sample was read from the calibration curve.

[2] = molecular target: T1, chimeric 3′(2′),5′-bisphosphate nucleotidase; assay: biochemical; set-up: species or system Saccharomyces cerevisaie
Excerpt: as §1, with “(H2O2). The” for “(H2O2).”, “reacted” for “reacts”, “lithium” for “sodium”, “6.” for “3:”
Key Assay Characteristics. The lithium enzymatic assay was a two reagent (R1 and R2) based kinetic assay system. The results were obtained in 10 min by measuring absorbance at 550 nm. No off line pretreatment was needed.
Assay Procedure. • 1. Reconstituted R1 and R2 reagents as described in Reagent Preparation section and kept the reconstituted R1 and R2 reagents on ice bath. • 2. In a cuvette, mixed 180 μL of Reagent R1 and 5 μL of serum sample and incubated at 37° C. for 1 minute and then added 85 μL of Reagent 2. • 3. Read absorbance (550 nm) at 6 minutes as A1. Incubated for 3 more minutes and read the absorbance at 9 minute as A2. • 4. Calculated ΔA=A2−A1
Calibration and Quality Control. The assay was calibrated daily using the enclosed low and high lithium standards. The calibration curve was constructed by plotting the ΔA values of the standards against the corresponding lithium concentrations. The lithium concentration of the sample was read from the calibration curve. The assay should be calibrated daily.

T1 sequence (P32179 other isoform, or with tags, fused parts or gaps): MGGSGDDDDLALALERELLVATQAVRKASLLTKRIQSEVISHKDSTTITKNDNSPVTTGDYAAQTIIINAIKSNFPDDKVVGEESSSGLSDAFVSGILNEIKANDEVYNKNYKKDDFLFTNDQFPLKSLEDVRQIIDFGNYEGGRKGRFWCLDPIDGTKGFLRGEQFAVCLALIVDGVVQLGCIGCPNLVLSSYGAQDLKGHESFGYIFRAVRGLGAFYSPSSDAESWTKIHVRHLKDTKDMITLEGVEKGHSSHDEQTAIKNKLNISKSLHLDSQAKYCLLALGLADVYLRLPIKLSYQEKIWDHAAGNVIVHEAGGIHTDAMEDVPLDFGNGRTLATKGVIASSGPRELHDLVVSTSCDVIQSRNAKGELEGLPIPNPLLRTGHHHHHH

## [Cl][Fe]([Cl])[Cl] [FeCl3]
[1]; substance at 0.25 mM
  Interference with sodium assay: not interfered

## N [NH4^+]
[2]; substance at 0.5 mM
  Interference with lithium assay: not interfered

## [Na+] [sodium]
[2]; substance at 200 mM
  Interference with lithium assay: not interfered
[1]; read-out: IC50 (nucleotidase activity sensitive to sodium concentration)
  IC50: 20 mM

## [Zn+2] [Zn^2+]
[2]; substance at 0.25 mM
  Interference with lithium assay: not interfered

## [K+] [K^+]
[2]
  Interference with lithium assay: not interfered

## [Ca+2] [Ca^2+]
[2]; substance at 4.0 mM
  Interference with lithium assay: not interfered

## Cl.N [NH4Cl]
[1]
  Interference with sodium assay: not interfered

## KPi
[1]; substance at 1.5 mM
  Interference with sodium assay: not interfered

## [Cl-].[Cl-].[Zn+2] [ZnCl2]
[1]; substance at 0.25 mM
  Interference with sodium assay: not interfered

## [Ca+2].[Cl-].[Cl-] [CaCl2]
[1]; substance at 5 mM
  Interference with sodium assay: not interfered

## [Cl][Cu][Cl] [CuCl2]
[1]; substance at 0.25 mM
  Interference with sodium assay: not interfered

## [Li] [lithium, reference compound]
[2]; read-out: IC50 (nucleotidase activity sensitive to lithium concentration)
  IC50: 0.1 mM

## [Cl-].[K+] [KCl]
[1]; substance at 10 mM
  Interference with sodium assay: not interfered

## [Fe+3] [Fe^3+]
[2]; substance at 0.25 mM
  Interference with lithium assay: not interfered

## [Cu+2] [Cu^2+]
[2]; substance at 0.25 mM
  Interference with lithium assay: not interfered

## [Cl-].[Na+] [NaCl]
[1]
  Interference with sodium assay: not interfered

## O=C1O[C@H]([C@@H](O)CO)C(O)=C1O [ascorbic acid]
[2]; substance at 5.0 mM
  Interference with lithium assay: not interfered
[1]; substance at 5 mM
  Interference with sodium assay: not interfered

## [Mg+2] [Mg^2+]
[2]; substance at 2.0 mM
  Interference with lithium assay: not interfered

## triglyceride
[1]; substance at 250 mg/dl
  Interference with sodium assay: not interfered
